Test results from paper PMC9621195 (Journal for Immunotherapy of Cancer, 2022).

Target: cathepsin B (Homo sapiens, UniProt P07858)
Assay: microscale thermophoresis with CTSB-WT-EGFP in HCT-116 cell lysate
Assay type: binding

CC(C)(O)[C@@H]1CC[C@](C)([C@H]2[C@@H](O)C[C@@]3(C)[C@@H]4C[C@H](O)[C@H]5C(C)(C)[C@@H](O)CC[C@@]56C[C@@]46CC[C@]23C)O1 [CAG, Cycloastragenol]
Kd: 26.6 nM
